EC50 data for 20 compounds are collected here from patent US11390616B2 (BRISTOL-MYERS SQUIBB COMPANY, priority 2015, dated 2022).

pEC50: −log10 of the molar value.

The target in one assay is T1, human APJ receptor (Homo sapiens, UniProt P35414).
T1 construct: expressed in transfected cells; host or cells: HEK293
T1 sequence (P35414 1-380): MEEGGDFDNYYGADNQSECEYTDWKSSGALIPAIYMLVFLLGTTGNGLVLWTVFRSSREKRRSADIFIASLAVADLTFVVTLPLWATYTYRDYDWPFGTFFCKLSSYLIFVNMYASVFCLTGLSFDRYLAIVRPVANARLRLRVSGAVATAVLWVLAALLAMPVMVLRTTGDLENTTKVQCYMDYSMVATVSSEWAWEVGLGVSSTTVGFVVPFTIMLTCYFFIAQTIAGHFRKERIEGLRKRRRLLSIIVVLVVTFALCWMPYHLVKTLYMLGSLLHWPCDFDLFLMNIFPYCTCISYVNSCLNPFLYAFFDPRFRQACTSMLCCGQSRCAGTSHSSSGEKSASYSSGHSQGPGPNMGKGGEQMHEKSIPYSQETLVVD
Kind of assay: Intracellular cAMP accumulation assay (APJ hcAMP, HTRF). It is filed as cell-based. As to conditions: HEK293 cells stably expressing human APJ receptor; inhibition of forskolin-mediated cAMP production; read-out: APJ cAMP Potency range. The procedure, abridged:
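Inhibition of forskolin (2 μM)-driven cAMP, with […], measured by HTRF after 30 min room-temperature compound exposure of stably transfected HEK293 cells. cAMP read from a standard curve; variable-slope fit gives EC50, and maximal inhibition is normalised to (Pyr1)apelin-13 as 100%.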
In the case of `CCOCc1nc(O)c(Cc2ccn(-c3ccc(Cl)cc3)n2)c(=O)n1-c1c(OC)cccc1OC` [Example 31, 5-{[1-(4-chlorophenyl)-1H-pyrazol-3-yl]methyl}-3-(2,6-dimethoxyphenyl)-2-(ethoxymethyl)-6-hydroxy-3,4-dihydropyrimidin-4-one], the pEC50 is 7.00 to 8.00.
The same measure, in the same setting: then `CCCCc1nc(=O)c(Cc2ccc(-c3ccc(F)nc3)cc2)c(O)n1-c1c(CC)cccc1CC` [Example 65, 2-butyl-1-(2,6-diethylphenyl)-5-{[4-(6-fluoropyridin-3-yl)phenyl]methyl}-6-hydroxy-1,4-dihydropyrimidin-4-one], with 8.00 to 11.00; and `CC(C)[C@@H](c1cc(F)cc(F)c1)n1c(CCC2CC2)nc(=O)c(Cc2ccc(-c3ccc(F)cc3C(N)=O)cc2)c1O` [Example 117, 4′-{[2-(2-cyclopropylethyl)-1-[(1S)-1-(3,5-difluorophenyl)-2-methylpropyl]-6-hydroxy-4-oxo-1,4-dihydropyrimidin-5-yl]methyl}-4-fluoro-[1,1′-biphenyl]-2-carboxamide], with 8.00 to 11.00.
On the same count and under the same terms, then `CCCCc1nc(O)c(Cc2ccc(-n3cc(F)ccc3=O)cc2)c(=O)n1-c1c(OC)cccc1OC` [Example 47, 2-butyl-3-(2,6-dimethoxyphenyl)-5-{[4-(5-fluoro-2-oxo-1,2-dihydropyridin-1-yl)phenyl]methyl}-6-hydroxy-3,4-dihydropyrimidin-4-one], with 8.00 to 11.00.
The same measure, in the same setting: then `CCCCc1nc(O)c(Cc2ccc(-c3ccc(Cl)cn3)cc2)c(=O)n1-c1c(OC)cccc1OC` [Example 46, 2-butyl-5-{[4-(5-chloropyridin-2-yl)phenyl]methyl}-3-(2,6-dimethoxyphenyl)-6-hydroxy-3,4-dihydropyrimidin-4-one], with 8.00 to 11.00.
As for `CC(C)OCc1nc(=O)c(Cc2ccc(-c3ccc(F)cc3C(N)=O)cc2)c(O)n1[C@H](c1cc(F)cc(F)c1)C(C)C` [Example 116, 4′-({1-[(1S)-1-(3,5-difluorophenyl)-2-methylpropyl]-6-hydroxy-4-oxo-2-[(propan-2-yloxy)methyl]-1,4-dihydropyrimidin-5-yl}methyl)-4-fluoro-[1,1′-biphenyl]-2-carboxamide], the pEC50 was 8.00 to 11.00.
On the same count and under the same terms, the result for `CCCCc1nc(=O)c(Cc2cccc(-c3ccncc3C)c2)c(O)n1[C@@H](CC)c1cc(F)cc(F)c1` [Example 127, 2-butyl-1-[(1S)-1-(3,5-difluorophenyl)propyl]-6-hydroxy-5-{[3-(3-methylpyridin-4-yl)phenyl]methyl}-1,4-dihydropyrimidin-4-one] reads 7.00 to 8.00; that for `CCCCc1nc(O)c(Cc2ccc(-c3ccc(OC)cc3)nc2)c(=O)n1-c1c(OC)cccc1OC` [Example 29, 2-butyl-3-(2,6-dimethoxyphenyl)-6-hydroxy-5-{[6-(4-methoxyphenyl)pyridin-3-yl]methyl}-3,4-dihydropyrimidin-4-one], 8.00 to 11.00; that for `COc1cccc(OC)c1-n1c(CCC(C)C)nc(O)c(Cc2coc(-c3ccc(Cl)cc3)n2)c1=O` [Example 18, 5-{[2-(4-chlorophenyl)-1,3-oxazol-4-yl]methyl}-3-(2,6-dimethoxyphenyl)-6-hydroxy-2-(3-methylbutyl)-3,4-dihydropyrimidin-4-one], 7.00 to 8.00.
Same read-out and setting: then `CC[C@@H](c1cc(F)cc(F)c1)n1c(-c2ccn(CC)n2)nc(=O)c(Cc2ccc(-c3ccnc(F)c3C)cc2)c1O` [Example 132, 1-[(1S)-1-(3,5-difluorophenyl)propyl]-2-(1-ethyl-1H-pyrazol-3-yl)-5-{[4-(2-fluoro-3-methylpyridin-4-yl)phenyl]methyl}-6-hydroxy-1,4-dihydropyrimidin-4-one], with 8.00 to 11.00.
As for `CCCCc1nc(O)c(Cc2csc(-c3ccc(C)cc3)n2)c(=O)n1-c1c(OC)cccc1OC` [Example 23, 2-butyl-3-(2,6-dimethoxyphenyl)-6-hydroxy-5-{[2-(4-methylphenyl)-1,3-thiazol-4-yl]methyl}-3,4-dihydropyrimidin-4-one], the pEC50 was 7.00 to 8.00.
On the same count and under the same terms, the result for `CCCCc1nc(=O)c(Cc2ccc(-c3ccncc3C)cc2)c(O)n1[C@@H](CC)c1cccc(F)c1` [Example 106, 2-butyl-1-[(1S)-1-(3-fluorophenyl)propyl]-6-hydroxy-5-{[4-(3-methylpyridin-4-yl)phenyl]methyl}-1,4-dihydropyrimidin-4-one] reads 8.00 to 11.00; that for `CCc1cccc(CC)c1-n1c(-c2ccn(C)n2)nc(=O)c(Cc2ccc(-c3cccn(C)c3=O)cc2F)c1O` [Example 88, 1-(2,6-diethylphenyl)-5-{[2-fluoro-4-(1-methyl-2-oxo-1,2-dihydropyridin-3-yl)phenyl]methyl}-6-hydroxy-2-(1-methyl-1H-pyrazol-3-yl)-1,4-dihydropyrimidin-4-one], 8.00 to 11.00; that for `CCc1cccc(CC)c1-n1c(-c2ccn(C(C)C)n2)nc(=O)c(Cc2ccc(-c3ccc(F)cc3C(N)=O)c(F)c2)c1O` [Example 84, 4′-{[1-(2,6-diethylphenyl)-6-hydroxy-4-oxo-2-[1-(propan-2-yl)-1H-pyrazol-3-yl]-1,4-dihydropyrimidin-5-yl]methyl}-2′,4-difluoro-[1,1′-biphenyl]-2-carboxamide], 8.00 to 11.00.
On the same count and under the same terms, the result for `CCn1ccc(-c2nc(=O)c(Cc3ccc(-c4ccnc(F)c4C)cc3)c(O)n2-c2c(OC)cccc2OC)n1` [Example 63, 1-(2,6-dimethoxyphenyl)-2-(1-ethyl-1H-pyrazol-3-yl)-5-{[4-(2-fluoro-3-methylpyridin-4-yl)phenyl]methyl}-6-hydroxy-1,4-dihydropyrimidin-4-one] reads 8.00 to 11.00; that for `CC[C@@H](c1ccccc1)n1c(-c2nc(C)cs2)nc(=O)c(Cc2ccc(-c3cccn(C)c3=O)c(F)c2)c1O` [Example 119, 5-{[3-fluoro-4-(1-methyl-2-oxo-1,2-dihydropyridin-3-yl)phenyl]methyl}-6-hydroxy-2-(4-methyl-1,3-thiazol-2-yl)-1-[(1S)-1-phenylpropyl]-1,4-dihydropyrimidin-4-one], 8.00 to 11.00; that for `CCc1cccc(CC)c1-n1c(-c2csc(C)n2)nc(=O)c(Cc2ccc(-c3ccnc(F)c3C)c(F)c2)c1O` [Example 78, 1-(2,6-diethylphenyl)-5-{[3-fluoro-4-(2-fluoro-3-methylpyridin-4-yl)phenyl]methyl}-6-hydroxy-2-(2-methyl-1,3-thiazol-4-yl)-1,4-dihydropyrimidin-4-one], 8.00 to 11.00.
On the same count and under the same terms, then `CCCCc1nc(O)c(Cc2ccc(OC)cc2)c(=O)n1-c1ccccc1OC` [Example 3, 2-butyl-6-hydroxy-3-(2-methoxyphenyl)-5-[(4-methoxyphenyl)methyl]-3,4-dihydropyrimidin-4-one], with 6.52 to 7.00.

Still in this assay, the particulars now being: HEK293 cells stably expressing human APJ receptor; inhibition of forskolin-mediated cAMP production; read-out: Human APJ cAMP EC50 potency range.
Take `CCCCc1nc(=O)c(Cc2ccc(Br)cc2)c(O)n1[C@@H](CC)c1cccc(C#N)c1` [Compound 95i, (S)-3-(1-(5-(4-bromobenzyl)-2-butyl-6-hydroxy-4-oxopyrimidin-1(4H)-yl)propyl)benzonitrile]: the pEC50 is 7.00 to 8.00.
Take `CCc1cccc(CC)c1-n1c(-c2ccn(C3CC3)n2)nc(=O)c(Cc2ccc(-c3ccnc(F)c3C)c(F)c2)c1O` [Example 61, 2-(1-cyclopropyl-1H-pyrazol-3-yl)-1-(2,6-diethylphenyl)-5-(3-fluoro-4-(2-fluoro-3-methylpyridin-4-yl)benzyl)-6-hydroxypyrimidin-4(1H)-one]: the pEC50 was 8.00 to 11.00.
